These results are taken from article PMC10301603, “Potent and Selective Benzothiazole-Based Antimitotics with Improved Water Solubility: Design, Synthesis, and Evaluation as Novel Anticancer Agents” (Pharmaceutics, 2023).

By IC50 is commonly meant the point on the concentration scale where inhibition reaches its midpoint.

The subject of one assay is bovine brain tubulin. Nature of the assay: Tubulin polymerization inhibition (turbidimetry). In kind it is biochemical. As to conditions: for % TPI: compounds tested at 10 µM, with respect to the negative control; for IC50: concentration inhibiting 50% of microtubular protein polymerization in vitro, read-out: TPI IC50. The procedure, abridged: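 Turbidimetric assay using calf-brain microtubular protein: polymerization started by a shift from 4 °C to 37 °C and followed by absorbance at 450 nm. Percent inhibition calculated against a ligand-free control; IC50 determined only for compounds giving >50% inhibition at 10 µM. Triplicates in two independent experiments using separate protein preparations.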

The subject of assay [1] is HeLa cells. Nature of the assay: Cell cycle analysis (PI, flow cytometry). It counts as cell-based, human. As to conditions: 8 and 14 200 nM, 9 500 nM. As to the method: (§1) An amount of 8 × 10^4 cells/mL (HeLa, MCF7, or U87 MG cells) were seeded in 6-well plates (2 mL/well) and incubated in complete DMEM medium (see above) at 37 °C and 5% CO2 atmosphere for 24 h. Then, the medium was replaced with fresh complete DMEM in the presence or absence of the selected compounds (8, 9, and 14). The concentration of the compounds was selected according to their IC50 value for the antiproliferative activity in each cell line (see above, Section 2.4.4). HeLa cells were treated with 200 nM of compounds 8 and 14 and 500 nM of compound 9; MCF7 cells were treated with 100 nM of compounds 8 and 14 and 500 nM of compound 9; and U87 MG cells were treated with 50 nM of compound 8 and 100 nM of compounds 9 and 14. Untreated cells were used as negative controls. Cells were harvested 24, 48, or 72 h following treatment and fixed in ice-cold ethanol/PBS (7:3) overnight. Cells were then washed twice with PBS, suspended in PBS, and incubated overnight in darkness with 0.2 mg/mL RNase A (Sigma-Aldrich, St. Louis, MO, USA), 50 µg/mL propidium iodide (Sigma-Aldrich, St. Louis, MO, USA), and Triton 10× at room temperature. BD Accuri™ C6 Plus Flow Cytometer (BD Biosciences) was used to analyze samples, and BD Accuri™ C6 Software (version 1.0.264.21) was used for data analysis.
For orientation: Flow cytometry measures light scatter and fluorescence of single cells or particles in a stream.

Assay [2] deals with MCF7 cells. Nature of the assay: Cell cycle analysis (PI, flow cytometry). In kind it is cell-based, human. As to conditions: 8 and 14 100 nM, 9 500 nM. As to the method: as §1
Assay [3] has as its system U87MG cells. Nature of the assay: Cell cycle analysis (PI, flow cytometry). In kind it is cell-based, human. As to conditions: for combined G2/M plus subG0/G1 populations: over the three time points (24, 48, 72 h). The procedure:
as §1, with “HeLa cells were treated with 200 nM of compounds 8 and 14 and 500 nM of compound 9; MCF7 cells were treated with 100 nM of compounds 8 and 14 and 500 nM of compound 9; and U87 MG cells were treated with 50 nM of compound 8 and 100 nM of compounds 9 and 14.” left out

The subject of assay [4] is HeLa cells. Nature of the assay: Apoptotic cell death quantification (Annexin V-FITC/PI). It counts as cell-based, human. As to conditions: 72 h, 8 and 14 200 nM, 9 500 nM. As to the method: (§2) Annexin V-FITC/PI apoptosis detection kit (Immunostep, Salamanca, Spain) was used to quantify HeLa, MCF7, or U87 MG cells by following the manufacturer’s guidelines. An amount of 5 × 10^4 cells/mL were seeded in 12-well plates (1 mL/well) and incubated in complete DMEM medium (see above) at 37 °C and 5% CO2 atmosphere for 24 h. Then, the medium was replaced with fresh complete DMEM in the presence or absence of the selected compounds (8, 9, and 14). The concentration of the compounds was selected according to their IC50 value for the antiproliferative activity in each cell line (see above, Section 2.4.4). HeLa cells were treated with 200 nM of compounds 8 and 14 and 500 nM of compound 9; MCF7 cells were treated with 100 nM of compounds 8 and 14 and 500 nM of compound 9; and U87 MG cells were treated with 50 nM of compound 8 and 100 nM of compounds 9 and 14. Untreated cells were used as negative controls. After 72 h of incubation, cells were collected, centrifugated, resuspended in the Annexin V binding buffer, and stained with Annexin V-FITC/PI. Cells were then incubated in darkness for 15 min at room temperature. Samples were analyzed using BD Accuri™ C6 Plus Flow Cytometer (BD Biosciences), and acquired data were analyzed using BD Accuri™ C6 Software (version 1.0.264.21).

In assay [5] the test system is MCF7 cells. Described as above. It counts as cell-based, human. As to conditions: MCF7, 72 h; 8 and 14 100 nM, 9 500 nM. The procedure: as §2
Assay [6] concerns U87MG cells. The description is as above. As to conditions: U87 MG, 72 h; 8 50 nM, 9 and 14 100 nM. In kind it is cell-based, human. The procedure:
as §2

[7] abbreviates: 24 h, 8 50 nM, 14 and 9 200 nM (Figure 6 legend; 100 nM in methods).

For the molecule `COc1ccc2nc(N(C=O)Cc3cccnc3)sc2c1` [Compound 14, N-(6-methoxybenzo[d]thiazol-2-yl)-N-(pyridin-3-ylmethyl)formamide], the “% TPI” value in the assay on bovine brain tubulin is 87%. Also, the IC50 in the assay on bovine brain tubulin amounted to 4.1 µM. Moreover, the G2/M population with HeLa cells [1] (24 h) is listed as 56%; with HeLa cells [1] (48 h), 60%; in the assay on MCF7 cells [2] (MCF7, 24 h), 40%; in the assay with MCF7 cells [2] (MCF7, 48 h), 30–35%; with MCF7 cells [2] (MCF7, 72 h) it was 30–35%. In addition, the results for the “sub G0/G1 population” value with HeLa cells [1] (48 h) and in the assay on HeLa cells [1] (72 h) were 14–18% and 43%, respectively. Moreover, the SubG0/G1 population in the assay with MCF7 cells [2] (MCF7, 48 h) is given as 27%; in the assay with MCF7 cells [2] (MCF7, 72 h) it was 33%. For the same molecule, in the assay on U87MG cells [3], the “combined G2/M plus subG0/G1 populations” value is reported as “roughly 75%”. For the same molecule, the “early and late apoptosis (apoptotic cells)” value in the assay on HeLa cells [4] is listed as 86%. Also, the “apoptosis (apoptotic cells)” value in the assay on MCF7 cells [5] is on record as 71%. In addition, the “cells in early or late apoptosis (response to Annexin V)” value in the assay with U87MG cells [6] came to 67%.

Take `CCNC(=O)N(Cc1cccnc1)c1nc2ccc(OC)cc2s1` [Compound 8]: in the assay on bovine brain tubulin, the “% TPI” value was 100%. In addition, the IC50 in the assay with bovine brain tubulin is 2.9 µM. Also, the G2/M population is on record as 80% with HeLa cells [1] (24 h); 58% in the assay with HeLa cells [1] (48 h); 32% in the assay with MCF7 cells [2] (MCF7, 24 h); 39% in the assay with U87MG cells [3] (setting [7]). Also, the “sub G0/G1 population” value is reported as 14–18% in the assay on HeLa cells [1] (48 h) and 52% in the assay with HeLa cells [1] (72 h). The SubG0/G1 population with MCF7 cells [2] (MCF7, 48 h) turned out to be 9%; in the assay on MCF7 cells [2] (MCF7, 72 h), 26%; in the assay on U87MG cells [3] (setting [7]), 41%. Besides, the “combined G2/M plus subG0/G1 populations” value in the assay with U87MG cells [3] is about 85%. In addition, the “early and late apoptosis (apoptotic cells)” value in the assay on HeLa cells [4] was 93%. Moreover, the “Alive cells (PI−, AnV−)” value with MCF7 cells [5] amounted to 46%. Further, in the assay on MCF7 cells [5], the “apoptosis (apoptotic cells)” value turned out to be 47%. Further, the “cells in early or late apoptosis (response to Annexin V)” value in the assay on U87MG cells [6] turned out to be 80%.
